Measurements: patent publication US20060240083A1, “ANTIMICROBIAL AND IMMUNOSTIMULATING COMPOSITION” (BRENNEN MEDICAL, LLC, priority 2000, published 2006)

Tested on: bacteria
Test: Zone-of-inhibition test, overall outcome in words
Assay type: cell-based
Protocol: A standard zone-of-inhibition study was performed on the lotion and wound dressing exemplars described above. The zone-of-inhibition test involved placing a quantity of the prepared lotion or wound dressing in a petri dish, which had been cultured with a particular bacterium. The bacteria used in this test included: B. subtilis, B. vulgatus, C. albicans, E. coli, P. aeruginosa, and S. aureus. In each of these tests, the diameter of the prepared lotion or wound dressing placed in the cultured petri dishes was measured and recorded at the outset of the test. On the first, second, and fifth days thereafter the diameter of the zone of inhibition was measured and recorded. The zone of inhibition in this test was defined as the area surrounding the prepared lotion or wound dressing on the petri dish which was uninhabited by the bacteria of the specific culture. Table 1 reports data for the prepared lotion zone-of-inhibition test and Table 2 reports data for the prepared wound dressing zone-of-inhibition test.
Similar results are observed for a zone-of-inhibition test when a yeast-derived β-glucan is used in a medical composition as described herein.

Substance: β-glucan
- antimicrobial effect in the zone-of-inhibition test (in words) (overall outcome of the zone-of-inhibition tests): no inhibition of bacteria
- effect on bacterial growth (in words) (β-glucan as a microbial nutrient): promotes bacterial growth
